Target: xanthine oxidase (Bos taurus, UniProt P80457)
Assay: in vitro xanthine oxidase inhibition (hypoxanthine substrate, absorbance at 292, pH 7.4 buffer; Baker et al procedure)
Type: biochemical
Conditions: hypoxanthine 6 × 10^-5 M solution, 1 minute; for inhibition at 20 µM: test compound 2 × 10^-5 M
Protocol: The procedure used employed the principals described in J. Pharm.
A reference cuvette is filled with 0.05M pH 7.4 buffer. For the control, mix quickly in a cuvette 2 ml. hypoxanthine solution (6 × 10^-^5 M), 2 ml.

Sequence of xanthine oxidase (P80457 whole entry): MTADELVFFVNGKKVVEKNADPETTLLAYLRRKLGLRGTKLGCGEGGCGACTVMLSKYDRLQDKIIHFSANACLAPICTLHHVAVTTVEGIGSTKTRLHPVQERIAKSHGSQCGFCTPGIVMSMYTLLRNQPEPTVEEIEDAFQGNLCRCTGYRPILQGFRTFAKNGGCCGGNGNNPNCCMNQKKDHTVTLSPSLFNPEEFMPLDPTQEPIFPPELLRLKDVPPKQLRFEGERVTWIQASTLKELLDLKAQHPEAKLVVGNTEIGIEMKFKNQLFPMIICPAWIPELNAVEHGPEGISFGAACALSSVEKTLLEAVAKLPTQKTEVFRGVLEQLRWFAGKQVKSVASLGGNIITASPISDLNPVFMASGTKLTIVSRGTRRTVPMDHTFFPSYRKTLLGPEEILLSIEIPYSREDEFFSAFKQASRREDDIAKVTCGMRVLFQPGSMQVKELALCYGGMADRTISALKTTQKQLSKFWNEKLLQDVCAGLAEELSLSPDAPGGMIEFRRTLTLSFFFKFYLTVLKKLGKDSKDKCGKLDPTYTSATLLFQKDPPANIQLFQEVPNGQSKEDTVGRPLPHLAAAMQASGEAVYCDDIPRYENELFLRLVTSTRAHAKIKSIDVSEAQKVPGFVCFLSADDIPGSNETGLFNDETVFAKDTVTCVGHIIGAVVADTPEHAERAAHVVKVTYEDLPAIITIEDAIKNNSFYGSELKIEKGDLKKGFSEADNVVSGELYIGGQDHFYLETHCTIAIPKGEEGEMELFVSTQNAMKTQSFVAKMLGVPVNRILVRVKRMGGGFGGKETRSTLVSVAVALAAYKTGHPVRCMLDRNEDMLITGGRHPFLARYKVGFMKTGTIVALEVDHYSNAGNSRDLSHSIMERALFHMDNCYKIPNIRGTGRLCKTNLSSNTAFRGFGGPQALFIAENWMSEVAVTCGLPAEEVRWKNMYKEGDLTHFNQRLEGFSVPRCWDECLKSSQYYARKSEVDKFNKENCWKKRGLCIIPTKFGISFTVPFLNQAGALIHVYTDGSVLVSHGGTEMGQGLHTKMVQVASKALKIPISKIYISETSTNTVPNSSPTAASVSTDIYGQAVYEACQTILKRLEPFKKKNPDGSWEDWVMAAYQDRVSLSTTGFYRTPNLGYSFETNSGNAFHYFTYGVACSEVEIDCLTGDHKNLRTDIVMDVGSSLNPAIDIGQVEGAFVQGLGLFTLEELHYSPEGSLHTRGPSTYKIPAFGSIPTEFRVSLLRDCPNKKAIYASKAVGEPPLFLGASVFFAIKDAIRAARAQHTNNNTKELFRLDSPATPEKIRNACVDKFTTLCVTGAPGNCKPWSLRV

## CCNS(=O)(=O)c1cc2c(cc1Cl)NC(C(Cl)(Cl)Cl)NS2(=O)=O (centres unmarked)
  inhibition at 20 µM: 63%

## C=CCN(CC=C)S(=O)(=O)c1cc2c(cc1Cl)NC(C(Cl)(Cl)Cl)NS2(=O)=O (centres unmarked)
  inhibition at 20 µM: 6%

## CNS(=O)(=O)c1cc2c(cc1Cl)NC(C(Cl)(Cl)Cl)NS2(=O)=O (centres unmarked)
  inhibition at 20 µM: 16%

## NS(=O)(=O)c1cc2c(cc1Cl)NC(C(Cl)(Cl)Cl)NS2(=O)=O (centres unmarked)
  inhibition at 20 µM: 45%

## CCN(CC)S(=O)(=O)c1cc2c(cc1Cl)N=C(C(Cl)(Cl)Cl)NS2(=O)=O
  inhibition at 20 µM: 3%

## CCN(CC)S(=O)(=O)c1cc2c(cc1Cl)N=C(CCl)NS2(=O)=O
  inhibition at 20 µM: 75%

## CCN(CC)S(=O)(=O)c1cc2c(cc1Cl)N=C(C(Cl)Cl)NS2(=O)=O
  inhibition at 20 µM: 18%

## CCNS(=O)(=O)c1cc2c(cc1Cl)N=C(C(Cl)Cl)NS2(=O)=O
  inhibition at 20 µM: 6%

## C=CCN(CC=C)S(=O)(=O)c1cc2c(cc1Cl)N=C(CCl)NS2(=O)=O
  inhibition at 20 µM: 53%

## CN(C)S(=O)(=O)c1cc2c(cc1Cl)N=C(C(C)(Cl)Cl)NS2(=O)=O
  inhibition at 20 µM: 13%

## CN(C)S(=O)(=O)c1cc2c(cc1Cl)N=C(C(Cl)(Cl)Cl)NS2(=O)=O
  inhibition at 20 µM: 5%

## CN(C)S(=O)(=O)c1cc2c(cc1Cl)N=C(C(Cl)Cl)NS2(=O)=O
  inhibition at 20 µM: 11%

## CNS(=O)(=O)c1cc2c(cc1Cl)N=C(CCl)NS2(=O)=O
  inhibition at 20 µM: 78%

## NS(=O)(=O)c1cc2c(cc1Cl)N=C(CCl)NS2(=O)=O
  inhibition at 20 µM: 24%

## CCCN(CCC)S(=O)(=O)c1cc2c(c(Cl)c1Cl)N=C(C(Cl)(Cl)Cl)NS2(=O)=O
  inhibition at 20 µM: 26%

## CCCN(CCC)S(=O)(=O)c1cc2c(c(Cl)c1Cl)N=C(CCl)NS2(=O)=O
  inhibition at 20 µM: 33%

## CCCN(CCC)S(=O)(=O)c1cc2c(c(Cl)c1Cl)N=C(C(Cl)Cl)NS2(=O)=O
  inhibition at 20 µM: 21%

## CCCN(CCC)S(=O)(=O)c1cc2c(cc1Cl)N=C(C(Cl)(Cl)Cl)NS2(=O)=O
  inhibition at 20 µM: 14%

## CCCN(CCC)S(=O)(=O)c1cc2c(cc1Cl)N=C(CBr)NS2(=O)=O
  inhibition at 20 µM: 30%

## CCCN(CCC)S(=O)(=O)c1cc2c(cc1Cl)N=C(CCl)NS2(=O)=O
  inhibition at 20 µM: 69%

## CCCN(CCC)S(=O)(=O)c1cc2c(cc1Cl)N=C(C(Cl)Cl)NS2(=O)=O
  inhibition at 20 µM: 12%

## CN(C)S(=O)(=O)c1cc2c(cc1Cl)N=C(CCl)NS2(=O)=O [3-Chloromethyl-6-chloro-7-N,N-dimethylsulfamoyl-1,2,4-benzothiadiazine-1,1-dioxide]
1 min, test compound at 2 × 10^-6 (footnote 1)
  inhibition at 2 µM: 52%

## CCCN(CCC)S(=O)(=O)c1cc2c(cc1Cl)NC(C(Cl)(Cl)Cl)NS2(=O)=O (centres unmarked) [3-Trichloromethyl-6-chloro-7-N,N-di-n-propylsulfamoyl-3,4-dihydro-1,2,4-benzothiadiazine-1,1-dioxide]
  inhibition at 20 µM: 6%
